# From patent publication US8455448B2, “Myostatin isoform” (Myostin Therapeutics Pty Ltd, priority 2004, dated 2013)
# “Also recorded” adds a separate entry of the source.
# B1: roMSV65: 65 amino acid C-terminal peptide of ovine MSV (SEQ ID NO: 49) expressed as recombinant protein in E. coli (protein)
# chain: VHFYTPPYGQWIFHKERKIIFLEVYIQFCSILGEAVFKRQSKSIHFCQNFKIIACLCNTAAFRMK
# modifications: Ovis aries
# How the values were obtained:
# [1] = tested on: murine C2C12 myoblasts; assay: Proliferation assay of C2C12 murine myoblasts (methylene blue, absorbance 655 nm); format: cell-based
# Experimental: (§1) Myoblasts were seeded in 96-well tissue culture plates (Nunc, Roskilde, Denmark) at a cell density of 1000 cells per well in 200 μl of Dulbecco's modified Eagle's medium (DMEM, Invitrogen, California) supplemented with foetal bovine serum (FBS, 10% v/v, Invitrogen), penicillin (1×10^5 IU/l, Sigma, St Louis, Mo., USA) and streptomycin (100 mg/l, Sigma) buffered with NaHCO3 containing phenol red (7.22 nmol/l) as a pH indicator, and incubated overnight at 37° C. with 5% CO2. Medium was replaced with DMEM 10% FBS test medium containing 0, 0.001, 0.003, 0.01, 0.03, 0.1, 0.3, 1, 3 or 10 μg/ml oMSV65 in a semi-random arrangement of eight replicates (n=8) for each test medium. Plates were incubated at 37° C. with 5% CO2 for 72 hours, and then the medium was removed. The wells were washed with 200 μl of phosphate buffered saline (PBS, Oxoid, UK) and fixed with 100 μl of 10% formaldehyde, 0.9% NaCl solution for at least one hour. The fixative was then removed and 100 μl of 1% methylene blue stain in 0.01 M borate buffer (pH 8.5) was added to each well and incubated for 30 min at room temperature. Excess stain was removed by four sequential washes in borate buffer. Methylene blue was eluted from the cells by the addition of 100 μl 1:1 (v/v) ethanol/0.1 HCl. The plates were gently shaken and the absorbance was measured at 655 nm using a microplate photometer (FIGS. 3a and 3b).
# as §1, with “0,” for “0, 0.001, 0.003,”, “0.01,” for “0.01, 0.03,”, “1” for “0.3, 1, 3”, “oMSV47” for “oMSV65”, “60” for “72”, “(FIG. 9).” for “(FIGS. 3a and 3b).”
# Myoblasts were seeded in 96-well tissue culture plates (Nunc, Roskilde, Denmark) at a cell density of 1000 cells per well in […] of Dulbecco's modified Eagle's medium (DMEM, Invitrogen, California) supplemented with foetal bovine serum (FBS, 10% v/v, Invitrogen), penicillin (1×10^5 IU/l, Sigma, St Louis, Mo., USA) and streptomycin (100 mg/l, Sigma) buffered with NaHCO3 containing phenol red (7.22 nmol/l) as a pH indicator, and incubated overnight at 37° C. with 5% CO2. Medium was replaced with DMEM 2.5% FBS test medium containing 0, 0.01, 0.1, 1, 5 or 10 μg/ml of the respective peptides in a semi-random arrangement of eight replicates (n=8) for each test medium. Plates were incubated at 37° C. with 5% CO2 for 80 hours, and then the medium was removed. The wells were washed with 200 μl of phosphate buffered saline (PBS, Oxoid, UK) and fixed with 100 μl of 10% formaldehyde, 0.9% NaCl solution for at least one hour. The fixative was then removed and 100 μl of 1% methylene blue stain in 0.01 M borate buffer (pH 8.5) was added to each well and incubated for 30 min at room temperature. Excess stain was removed by four sequential washes in borate buffer. Methylene blue was eluted from the cells by the addition of 100 μl 1:1 (v/v) ethanol/0.1 HCl. […]
# [2] = tested on: primary ovine myoblasts; assay: Proliferation assay of primary ovine myoblasts (methylene blue); format: cell-based; conditions: roMSV65 0 to 10 μg/ml, 72 h, FIG. 3B
# Experimental: as §1
# [3] = roMSV47 1-10,000 ng/ml, 60 h, FIG. 10
Molecule,"proliferation of murine C2C12 myoblasts ([1]; 0-10 μg/ml, DMEM 2.5% FBS, 80 h, FIG. 12A and FIG. 17)","C2C12 myoblast proliferation [1, 3]","concentration of maximum proliferation enhancing activity [1, 3] [µg/mL]","increase in myoblast proliferation ([1]; roMSV47, 60 h, FIG. 10)","myoblast cell growth (proliferation) ([1]; roMSV65 0 to 10 μg/ml, 72 h, FIG. 3A)","proliferation of murine C2C12 myoblasts ([1]; roMSV65 without myostatin, 48 h, FIG. 9)",myoblast cell growth (proliferation) [2]
"roMSV47: 47 amino acid C-terminal mature ovine MSV fragment (SEQ ID NO: 50), recombinant from E. coli (IIFLEVYIQFCSILGEAVFKRQSKSIHFCQNFKIIACLCNTAAFRMK; Ovis aries)",stimulate myoblast proliferation; also recorded: stimulate C2C12 cell growth in a dose dependent manner,stimulates murine C2C12 myoblast proliferation,0.1 to 0.5,more than 2 fold,,,
B1,,,,,stimulate myoblast cell growth in a dose dependent manner,stimulated proliferation of murine myoblasts,stimulate myoblast cell growth in a dose dependent manner
